Assay results published in US6841548B2, “Pharmaceutical preparations containing estra-1,3,5(10)-triene derivatives” (Schering AG, priority 1994, dated 2005).

Columns and labels:
[1] = tested on: ovariectomated rats; assay: Oral estrogenic effects: uterus weights in ovariectomated rats; format: in vivo, rat; settings: 10 μg/animal/day p.o. d1-d7
Description: (§1) The laboratory animals, adult female rats (breeder: HSD/WIN:WU) were ovariectomated on day 14. Treatment started two weeks later by a single oral application per day of the respective test substance. The dosages given for esters refer to the steroid portion of the substances. The tests were made in three groups (A, B, C) at various points in time. This is why there is a deviation in control group values. The tests of series A, B, and C can therefore be compared among each other if the values for the respective control groups are taken into account.
(§2) The procedure of allocating animals to groups was randomized. The experiment was carried out as a block test. The animals were weighed at the beginning and at the end of the experiment.
(§3) The start of treatment was defined as day 1 (=d1), treatment was finished on day 7 (=d7); the animals were killed on day 8, various organs (uteri, adrenal glands, liver) were removed, weighed and deep-frozen (−196° C.) for further examination.

[2] = tested on: ovariectomated rats; assay: Oral estrogenic effects: weights of adrenal glands in ovariectomated rats; format: in vivo, rat; settings: 10 μg/animal/day p.o. d1-d7
Description: as §1, §2, §3

SMILES	Uterus weights (mean value) ([1]; Experiment B) [mg]	Weights of adrenal glands (mean value) ([2]; Experiment B) [mg]	melting point [°C]	Uterus weights (mean value) ([1]; Experiment C) [mg]	Weights of adrenal glands (mean value) ([2]; Experiment C) [mg]
CCN(CC)S(=O)(=O)Oc1ccc2c(c1)CC[C@@H]1[C@@H]2CC[C@]2(C)C(=O)CC[C@@H]12 [J 804, Estra-1,3,5(10)-trien-17-on-3-yl N,N-diethyl-sulfamate]	166.0	53.9			
CCN(CC)S(=O)(=O)Oc1ccc2c(c1)CC[C@@H]1[C@@H]2CC[C@]2(C)[C@@H](O)CC[C@@H]12 [J 981, 17β-Hydroxy-estra-1,3,5(10)-trien-3-yl N,N-diethyl-sulfamate]	225.34	50.5	175 to 176		
CN(C)S(=O)(=O)Oc1ccc2c(c1)CC[C@@H]1[C@@H]2CC[C@]2(C)[C@@H](O)C[C@@H]3C[C@]312 [J 982, 17β-Hydroxy-14α,15α-methylen-estra-1,3,5(10)-trien-3-yl N,N-dimethyl-sulfamate]	193.4	55.3			
CCN(CC)S(=O)(=O)Oc1ccc2c(c1)CC[C@@H]1[C@@H]2CC[C@]2(C)[C@@H](O)C[C@@H]3C[C@]312 [J 983, 17β-Hydroxy-14α,15α-methylen-estra-1,3,5(10)-trien-3-yl N,N-diethyl-sulfamate]	348.6	53.9			
CCN(CC)S(=O)(=O)Oc1ccc2c(c1)CC[C@@H]1[C@@H]2CC[C@]2(C)[C@@H](O)[C@H](O)C[C@@H]12 [J 984, 16α,17β-Dihydroxy-estra-1,3,5(10)-trien-3-yl N,N-diethyl-sulfamate]			121 to 124	245.63	59.3
CN(C)S(=O)(=O)Oc1ccc2c(c1)CC[C@@H]1[C@@H]2CC[C@]2(C)[C@@H](O)[C@H](O)C[C@@H]12 [J 989, 16α,17β-Dihydroxy-estra-1,3,5(10)-trien-3-yl N,N-dimethyl-sulfamate]			180 to 181	182.79	52.8
